Measurements as given in US5039684A, “Tetrazole amide derivatives of heterocyclic alkenyl acid and their use as antiallergic substances” (Valeas S. p. A., priority 1989, dated 1991).
Like-named read-outs stand apart in the source and are kept apart here.

What was measured:
[1] = in vivo; cited from earlier work
[2] = test system: passive cutaneous anaphylaxis; test: PCA test on the rat, intravenous administration just before challenge with antigen; type: in vivo, rat (male Sprague Dawley); conditions: for inhibition (%) / ED50 (conf. lim) P = 0.05: i.v.; for ED50: read-out: ED50 (conf. lim) P = 0.05
Protocol: (§1) The serum, obtained from rats actively sensitized with ovalbumin (antigen) and suitably diluted, was injected intradermically into the shaven back of male Sprague Dawley rats (2 wheals per rat).
(§2) The rats were treated intravenously after 24 hours with a solution of ovalbumin and Evans blue. Thirty minutes later they were killed and the diameter and intensity of the blue ring formed at the site of the intradermic injection were measured.
(§3) For each treated group (5 per group) the % inhibition was then calculated with respect to the control group.
The pharmacological screening was effected by administering the compounds of the present invention intravenously and orally.
(§4) For intravenous administration (2 ml/kg), those compounds in which R1 =H (see formula I) were dissolved in an aqueous 1% NaHCO3 solution whereas for oral administration (4 ml/Kg) they were either suspended in 0.5% carboxymethylcellulose or dissolved in an aqueous 3% NaHCO3 solution.

[3] = test system: passive cutaneous anaphylaxis; test: PCA test on the rat, time response curve after oral administration; type: in vivo, rat (male Sprague Dawley); conditions: for inhibition in vivo at 1 mg/kg / inhibition in vivo at 100 mg/kg / inhibition in vivo at 10 mg/kg / inhibition in vivo at 30 mg/kg / inhibition in vivo at 3 mg/kg: Rattus norvegicus; for inhibition in vivo at 1 mg/kg: 1 mg/kg/os; for inhibition in vivo at 100 mg/kg: 100 mg/kg/os; for inhibition in vivo at 10 mg/kg: 10 mg/kg/os; for inhibition in vivo at 30 mg/kg: read-out: inhibition %; for inhibition in vivo at 3 mg/kg: 3 mg/kg/os
Protocol: as §1, §2, §3, §4

[4] = test system: passive cutaneous anaphylaxis; conditions: oral, cited from earlier work
[5] = test system: passive cutaneous anaphylaxis; test: PCA test on the rat, oral administration before challenge with antigen; type: in vivo, rat (male Sprague Dawley); conditions: for inhibition in vivo at 0.3 mg/kg / inhibition in vivo at 1 mg/kg / inhibition in vivo at 3 mg/kg / ED50 / inhibition in vivo at 10 mg/kg / inhibition in vivo at 30 mg/kg: Rattus norvegicus, po; for inhibition in vivo at 3 mg/kg / inhibition in vivo at 10 mg/kg / inhibition in vivo at 30 mg/kg: read-out: inhibition (%); for ED50: Table 2, oral administration, read-out: ED50 (conf. lim) P = 0.05; for oral bioavailability (in words): from ED50 os / ED50 iv comparison; for ED50 OS/ED50 iv: oral 5 minutes before challenge / i.v. immediately before challenge
Protocol: The serum, obtained from rats actively sensitized with ovalbumin (antigen) and suitably diluted, was injected intradermically into the shaven back of male Sprague Dawley rats (2 wheals per rat). The rats were treated intravenously after 24 hours with a solution of ovalbumin and Evans blue. Thirty minutes later they were killed and the diameter and intensity of the blue ring formed at the site of the intradermic injection were measured. […] The pharmacological screening was effected by administering the compounds of the present invention intravenously and orally. For intravenous administration (2 ml/kg), those compounds in which R1 =H (see formula I) were dissolved in an aqueous 1% NaHCO3 solution whereas for oral administration (4 ml/Kg) they were either suspended in 0.5% carboxymethylcellulose or dissolved in an aqueous 3% NaHCO3 solution.

[6] = Acute toxicity in the mouse, oral administration; type: in vivo; conditions: mouse, in vivo, po, 1000 mg/kg, oral, 1000 mg/kg/os; read-out: mortality (%EAD)
Protocol: (§5) Acute toxicity was evaluated in the mouse by administering the compounds orally at scalar doses to a maximum of 1000 mg/kg to evaluate the 50% lethal dose (LD50). The compounds were administered in carboxymethylcellulose (0.5%) in a volume of […] to male mice (Swiss stock) of average weight 20 g.

[7] = test system: mouse; test: Acute toxicity in the mouse, oral administration; type: in vivo
Protocol: as §5

[8] = 5 min, oral, 5 minutes before challenge
[9] = 0.25 h, oral, 15 minutes before challenge
[10] = 0.5 h, oral, 30 minutes before challenge
[11] = 1 h, oral, 60 minutes before challenge
[12] = 2 h, oral, 120 minutes before challenge
[13] = Rattus norvegicus, iv, immediately before challenge
[14] = 3 mg/kg, 5 minutes before challenge
[15] = 5 min, 5 minutes before challenge
[16] = Rattus norvegicus, iv, 1 mg/kg, immediately before challenge, read-out: inhibition (%)
[17] = Rattus norvegicus, iv, 3 mg/kg, immediately before challenge
[18] = 10 mg/kg, 5 minutes before challenge
[19] = 30 mg/kg, 5 minutes before challenge
[20] = Rattus norvegicus, iv, read-out: inhibition (%)

O=C([O-])c1cc(=O)c2c(OCC(O)COc3cccc4oc(C(=O)[O-])cc(=O)c34)cccc2o1.[Na+].[Na+] [DSCG, Disodium chromoglycate, reference compound]
absorption at the gastro-enteric level [1]: not being absorbed at the gastro-enteric level
inhibition (%) ([2]; 0.1 mg/kg, immediately before challenge): 28.1%
inhibition (%) ([2]; 0.3 mg/kg, immediately before challenge): 33.6%
inhibition (%) ([2]; 1 mg/kg, immediately before challenge): 70.0%
inhibition (%) ([2]; 3 mg/kg, immediately before challenge): 100%
ED50 (conf. lim) P = 0.05 ([2]; immediately before challenge): 0.52 mg/kg/iv
ED50 (conf. lim) P = 0.05 ([2]; immediately before challenge, listed as D.S.C.G.): 0.52 (0.47-0.83) mg/kg/iv

Cc1cccc(C(=O)Nc2nn[nH]n2)n1 [TA 57-07, 6-methyl-N-(1H-tetrazol-5-yl)-2-pyridinecarboxyamide, reference compound]
inhibition in vivo at 1 mg/kg [3, 8]: 86.8%
inhibition in vivo at 1 mg/kg [3, 9]: 43.7%
inhibition in vivo at 1 mg/kg [3, 10]: 37.6%
inhibition in vivo at 1 mg/kg [3, 11]: 17.3%
inhibition in vivo at 1 mg/kg [3, 12]: 4.1%
ED50 [2, 13]: 0.059 mg/kg
ED50 ([4]; 5 minutes before challenge, Tsuzurahara et al.): 0.9 (0.6-1.6) mg/kg/os
inhibition in vivo at 0.3 mg/kg ([5]; 5 minutes before challenge): 12.7%
inhibition in vivo at 1 mg/kg ([5]; 5 minutes before challenge): 57.7%
inhibition in vivo at 3 mg/kg [5, 14]: 82.5%
ED50 [5, 15]: 0.93 mg/kg
oral bioavailability (in words) [5]: less bioavailable when administered orally than the compounds of the present invention
ED50 OS/ED50 iv [5]: 15.76
mortality [6]: 50%
No. (dead) ([7]; oral, 1000 mg/kg/os, 8 treated): 4

COc1ccc(/C=C/C(=O)Nc2ccccc2C(=O)O)cc1OC [Tranilast, N-(3', 4'-dimethoxycinnamoyl) anthranylic acid, reference compound]
inhibition in vivo at 100 mg/kg [3, 8]: 17.9%
inhibition in vivo at 100 mg/kg [3, 9]: 37.4%
inhibition in vivo at 100 mg/kg [3, 10]: 20.5%
inhibition in vivo at 100 mg/kg [3, 11]: 20.5%
inhibition in vivo at 100 mg/kg [3, 12]: 13.7%
time of administration before challenge giving the peak (maximum) effect ([3]; oral): 15 min
ED50 ([4]; 2 hours before challenge, Koda et al.): 150 (88, 3-255) mg/kg/os
ED50 ([5]; 0.25 h, 15 minutes before challenge): 115 mg/kg
oral bioavailability (in words) [5]: less bioavailable when administered orally than the compounds of the present invention
activity compared with Tranilast / compounds of the invention (in words) ([5]; oral): less active by at least one order of magnitude
mortality [6]: 87.5%
No. (dead) ([7]; oral, 1000 mg/kg/os, 8 treated): 7

O=C(/C=C/c1ccccn1)Nc1nn[nH]n1 [VAL 47-055, N-1H-tetrazol-5-yl-[3-(2-pyridyl)]-acrylamide trans isomer]
inhibition in vivo at 10 mg/kg [3, 8]: 45.6%
inhibition in vivo at 10 mg/kg [3, 9]: 0.5%
inhibition in vivo at 10 mg/kg [3, 10]: 0%
inhibition in vivo at 10 mg/kg [3, 11]: 4.7%
inhibition in vivo at 10 mg/kg [3, 12]: 0%
inhibition in vivo at 0.3 mg/kg ([2]; Rattus norvegicus, iv, 0.3 mg/kg, immediately before challenge, read-out: inhibition (%)): 5.6%
inhibition in vivo at 1 mg/kg [2, 16]: 47.5%
inhibition in vivo at 3 mg/kg [2, 17]: 85.9%
ED50 [2, 13]: 1.54 mg/kg
inhibition in vivo at 1 mg/kg ([5]; 5 minutes before challenge): 22.5%
inhibition in vivo at 3 mg/kg [5, 14]: 28.3%
inhibition in vivo at 10 mg/kg [5, 18]: 52.9%
inhibition in vivo at 30 mg/kg [5, 19]: 81%
ED50 [5, 15]: 7.94 mg/kg
ED50 OS/ED50 iv [5]: 5.15
mortality [6]: 0%
No. (dead) ([7]; mouse, in vivo, po, 1000 mg/kg): 0

O=C(/C=C/c1ccnc2ccccc12)Nc1nn[nH]n1 [VAL 47-067, N-1H-TETRAZOL-5-YL-[3-(4-QUINOLYL)] […] ISOMER]
inhibition in vivo at 30 mg/kg ([3]; po, 5 min): 50.5%
inhibition in vivo at 30 mg/kg ([3]; po, 0.25 h): 29.3%
inhibition in vivo at 30 mg/kg ([3]; po, 0.5 h): 13.3%
inhibition in vivo at 30 mg/kg ([3]; po, 1 h): 0%
inhibition in vivo at 30 mg/kg ([3]; po, 2 h): 0%
ED50 ([2]; Rattus norvegicus, iv): 0.35 mg/kg
inhibition in vivo at 0.1 mg/kg [2, 20]: 1.1%
inhibition in vivo at 0.3 mg/kg [2, 20]: 53.6%
inhibition in vivo at 1 mg/kg [2, 20]: 81.8%
inhibition in vivo at 3 mg/kg [5]: 8.3%
inhibition in vivo at 10 mg/kg [5]: 0%
inhibition in vivo at 30 mg/kg [5]: 16.7%
mortality [6]: 12.5%
No. (dead) ([7]; oral, 1000 mg/kg/os, 8 treated): 1

Cc1ccc(/C=C/C(=O)Nc2nn[nH]n2)o1 [VAL 47-073, N-1H-tetrazol-5-yl-[3-[5-methyl-(2-furyl)]]-acrylamide trans isomer]
inhibition in vivo at 1 mg/kg [3, 8]: 52.6%
inhibition in vivo at 1 mg/kg [3, 9]: 7.8%
inhibition in vivo at 1 mg/kg [3, 10]: 19.8%
inhibition in vivo at 1 mg/kg [3, 11]: 0%
inhibition in vivo at 1 mg/kg [3, 12]: 0%
inhibition in vivo at 1 mg/kg [2, 16]: 3.4%
inhibition in vivo at 3 mg/kg [2, 17]: 50.7%
inhibition in vivo at 10 mg/kg [2, 13]: 95.1%
ED50 [2, 13]: 3.13 mg/kg
inhibition in vivo at 0.3 mg/kg ([5]; 5 minutes before challenge): 22%
inhibition in vivo at 1 mg/kg ([5]; 5 minutes before challenge): 44%
inhibition in vivo at 3 mg/kg [5, 14]: 87.5%
inhibition in vivo at 10 mg/kg [5, 18]: 89.3%
ED50 [5, 15]: 0.92 mg/kg
ED50 OS/ED50 iv [5]: 0.29
mortality [6]: 0%
No. (dead) ([7]; mouse, in vivo, po, 1000 mg/kg): 0
toxicity (in words) ([7]; oral, mouse): do not determine any toxic effect

Cc1ccc(/C=C\C(=O)Nc2nn[nH]n2)o1 [VAL 47-073cis, N-1H-tetrazol-5-yl-[3-[5-methyl-(2-furyl)]]-acrylamide cis isomer]
inhibition in vivo at 3 mg/kg [3, 8]: 50.8%
inhibition in vivo at 3 mg/kg [3, 9]: 66.4%
inhibition in vivo at 3 mg/kg [3, 10]: 17.3%
inhibition in vivo at 3 mg/kg [3, 11]: 5.8%
inhibition in vivo at 3 mg/kg [3, 12]: 0%
inhibition in vivo at 1 mg/kg [2, 16]: 6.6%
inhibition in vivo at 3 mg/kg [2, 17]: 25%
inhibition in vivo at 10 mg/kg [2, 13]: 69.4%
ED50 [2, 13]: 5.76 mg/kg
inhibition in vivo at 0.3 mg/kg ([5]; 5 minutes before challenge): 25.1%
inhibition in vivo at 1 mg/kg ([5]; 5 minutes before challenge): 42.6%
inhibition in vivo at 3 mg/kg [5, 14]: 67.2%
ED50 [5, 15]: 1.26 mg/kg
ED50 OS/ED50 iv [5]: 0.22
mortality [6]: 12.5%
No. (dead) ([7]; mouse, in vivo, po, 1000 mg/kg): 1

O=C(/C=C/c1ccc[nH]1)Nc1nn[nH]n1 [VAL 47-078, N-1H-tetrazol-5-yl-[3-(2-pyrrole)]-acrylamide trans isomer]
inhibition in vivo at 30 mg/kg ([3]; 5 min, oral, 30 mg/kg/os, 5 minutes before challenge): 31.4%
inhibition in vivo at 30 mg/kg ([3]; 0.25 h, oral, 30 mg/kg/os, 15 minutes before challenge): 29.3%
inhibition in vivo at 30 mg/kg ([3]; 0.5 h, oral, 30 mg/kg/os, 30 minutes before challenge): 9%
inhibition in vivo at 30 mg/kg ([3]; 1 h, oral, 30 mg/kg/os, 60 minutes before challenge): 4.3%
inhibition in vivo at 30 mg/kg ([3]; 2 h, oral, 30 mg/kg/os, 120 minutes before challenge): 0.5%
inhibition in vivo at 1 mg/kg [2, 16]: 11.2%
inhibition in vivo at 3 mg/kg [2, 17]: 41.3%
inhibition in vivo at 10 mg/kg [2, 13]: 78.6%
ED50 [2, 13]: 3.85 mg/kg
inhibition in vivo at 3 mg/kg [5, 14]: 7.4%
inhibition in vivo at 10 mg/kg [5, 18]: 35.8%
inhibition in vivo at 30 mg/kg [5, 19]: 38.3%
mortality [6]: 0%
No. (dead) ([7]; oral, 1000 mg/kg/os, 8 treated): 0
